Source: article PMC3947346 (Psychopharmacology, 2013)

Legend:
male C57BL/6 J mice [1] = test: intermittent access to ethanol
male C57BL/6 J mice [2] = test: repeated drinking-in-the-dark
male C57BL/6 J mice [3] = test: blood ethanol concentrations; assay type: in vivo; conditions: 17 mg/kg p.o.
[4] = in vivo pharmacokinetic study, plasma; design: species or system mice; conditions: 10 mg/kg p.o.

O=C1CC[C@@]2(O)[C@H]3Cc4ccc(O)c5c4[C@@]2(CCN3CC2CC2)[C@H]1O5 [Naltrexone, reference compound]
IA ethanol drinking (gram per kilogram), effect vs saline vehicle (male C57BL/6 J mice [1]; 10 mg/kg i.p., 2-h access): decreased ethanol drinking
Mean percent decrease of ethanol intake (ml) (male C57BL/6 J mice [1]; IA, 10 mg/kg i.p., 2 h): approximately 36%
DID ethanol intake (gram per kilogram), effect vs vehicle (male C57BL/6 J mice [2]; 0.1, 1, 10 mg/kg i.p., any subsequent hour (2-4 h)): no effect
DID ethanol intake (gram per kilogram), effect vs vehicle (male C57BL/6 J mice [2]; 0.1, 1, 10 mg/kg i.p., first hour, all doses): significantly reduced ethanol drinking
Mean percent decrease of ethanol intake (ml) (male C57BL/6 J mice [2]; DID, 10 mg/kg i.p., initial hour): approximately 57%

COc1nn(-c2ccc(F)c(NC(C)=O)c2)c(=O)n(Cc2ccc(Cl)c(F)c2)c1=O [ADX71441]
BEC after 4 h IA, difference vs vehicle treatment (male C57BL/6 J mice [3]): not statistically different
Average BEC (blood ethanol concentration) (male C57BL/6 J mice [3]; after 4 h IA access, vehicle 47.73±9.18 mg/dl): 35.74 ± 5.34 mg/dL
Ethanol preference, effect (male C57BL/6 J mice [1]; IA, 3, 10, 17 mg/kg p.o., any time point): not significantly affected
Percent change from baseline, volume of ethanol (male C57BL/6 J mice [1]; IA, 3 mg/kg p.o., 2 h): −3.92±12.96%
Percent change from baseline, volume of ethanol (male C57BL/6 J mice [1]; IA, 3 mg/kg p.o., 4 h): −8.21±7.51%
Percent change from baseline, volume of ethanol (male C57BL/6 J mice [1]; IA, 3 mg/kg p.o., 24 h): 0.31±6.16%
Percent change from baseline, volume of ethanol (male C57BL/6 J mice [1]; IA, 10 mg/kg p.o., 2 h): −37.54±18.17%
Percent change from baseline, volume of ethanol (male C57BL/6 J mice [1]; IA, 10 mg/kg p.o., 4 h): −29.60±10.55 %
Percent change from baseline, volume of ethanol (male C57BL/6 J mice [1]; IA, 10 mg/kg p.o., 24 h): −10.12±5.36%
Percent change from baseline, volume of ethanol (male C57BL/6 J mice [1]; IA, 17 mg/kg p.o., 2 h): −66.39±10.30 %
Percent change from baseline, volume of ethanol (male C57BL/6 J mice [1]; IA, 17 mg/kg p.o., 4 h): −44.07±9.06 %
Percent change from baseline, volume of ethanol (male C57BL/6 J mice [1]; IA, 17 mg/kg p.o., 24 h): −15.30±4.81 %
Percent change from baseline, volume of water (male C57BL/6 J mice [1]; IA, 3 mg/kg p.o., 2 h): 46.78±40.53%
Percent change from baseline, volume of water (male C57BL/6 J mice [1]; IA, 3 mg/kg p.o., 4 h): 17.35±22.27%
Percent change from baseline, volume of water (male C57BL/6 J mice [1]; IA, 3 mg/kg p.o., 24 h): −7.73±19.28%
Percent change from baseline, volume of water (male C57BL/6 J mice [1]; IA, 10 mg/kg p.o., 2 h): 55.56±45.39%
Percent change from baseline, volume of water (male C57BL/6 J mice [1]; IA, 10 mg/kg p.o., 4 h): 19.72±20.18%
Percent change from baseline, volume of water (male C57BL/6 J mice [1]; IA, 10 mg/kg p.o., 24 h): 9.05±18.21%
Percent change from baseline, volume of water (male C57BL/6 J mice [1]; IA, 17 mg/kg p.o., 2 h): −26.90±22.63%
Percent change from baseline, volume of water (male C57BL/6 J mice [1]; IA, 17 mg/kg p.o., 4 h): −9.62±13.96%
Percent change from baseline, volume of water (male C57BL/6 J mice [1]; IA, 17 mg/kg p.o., 24 h): 10.83±11.73%
IA ethanol drinking (gram per kilogram), effect vs vehicle (male C57BL/6 J mice [1]; p.o., 4-h access period, 10 and 17 mg/kg most effective, not at 2 h): reduced ethanol drinking
motor activity, observation (male C57BL/6 J mice [2]; 30 mg/kg p.o.): signs of mild reduction in motor activity in a few animals
DID ethanol intake (gram per kilogram), effect vs vehicle (male C57BL/6 J mice [2]; 3, 10, 30 mg/kg p.o., hours 1-4, post hoc only 10 and 30 mg/kg): significantly and dose-dependently reduced
Percent change from baseline, volume of ethanol (ml) (male C57BL/6 J mice [2]; DID, 3 mg/kg p.o., 1 h): −25.93±11.92%
Percent change from baseline, volume of ethanol (ml) (male C57BL/6 J mice [2]; DID, 3 mg/kg p.o., 2 h): −23.12±7.29%
Percent change from baseline, volume of ethanol (ml) (male C57BL/6 J mice [2]; DID, 3 mg/kg p.o., 3 h): −9.84±6.84%
Percent change from baseline, volume of ethanol (ml) (male C57BL/6 J mice [2]; DID, 3 mg/kg p.o., 4 h): −4.83±8.82%
Percent change from baseline, volume of ethanol (ml) (male C57BL/6 J mice [2]; DID, 10 mg/kg p.o., 1 h): −70.44±13.55 %
Percent change from baseline, volume of ethanol (ml) (male C57BL/6 J mice [2]; DID, 10 mg/kg p.o., 2 h): −57.53±8.28 %
Percent change from baseline, volume of ethanol (ml) (male C57BL/6 J mice [2]; DID, 10 mg/kg p.o., 3 h): −36.11±5.39 %
Percent change from baseline, volume of ethanol (ml) (male C57BL/6 J mice [2]; DID, 10 mg/kg p.o., 4 h): −25.11±7.68 %
Percent change from baseline, volume of ethanol (ml) (male C57BL/6 J mice [2]; DID, 30 mg/kg p.o., 1 h): −80.73±4.11 %
Percent change from baseline, volume of ethanol (ml) (male C57BL/6 J mice [2]; DID, 30 mg/kg p.o., 2 h): −86.04±4.05 %
Percent change from baseline, volume of ethanol (ml) (male C57BL/6 J mice [2]; DID, 30 mg/kg p.o., 3 h): −80.99±4.39 %
Percent change from baseline, volume of ethanol (ml) (male C57BL/6 J mice [2]; DID, 30 mg/kg p.o., 4 h): −69.57±3.89 %
Mean percent change from vehicle baseline, ethanol intake (male C57BL/6 J mice [2]; DID, highest dose (30 mg/kg p.o.), across the 4-h test): −70–80%
mean plasma concentration at 4 h as % of the mean Cmax ([4]; 4 h): 72%
mean plasma concentration at 24 h as % of the mean Cmax ([4]; 24 h): 5%
AUC0–8 ([4]; male C57BL/6 mice): 6,970 ng h/ml
C max ± SD ([4]; male C57BL/6 mice): 673 ± 50 ng/mL
Plasma concentration at 0.25 h ([4]; male C57BL/6 mice): 538 ± 51 ng/mL
Plasma concentration ± SD at 1 h ([4]; male C57BL/6 mice): 629 ± 61 ng/mL
Plasma concentration ± SD at 4 h ([4]; male C57BL/6 mice): 487 ± 62 ng/mL
Plasma concentration ± SD at 24 h ([4]; male C57BL/6 mice): 36.4 ± 33 ng/mL
T 1/2 (terminal half-life) ([4]; male C57BL/6 mice): 5.3 h
T max ([4]; male C57BL/6 mice): 2 h
AUClast ± SD ([4]; male C57BL/6 mice, Tlast=24 h): 6,700±309 ng h/ml
